# Literature values in patent US10138221B2, “Salts of nilotinib and polymorphs thereof” (Sun Pharmaceutical Industries Limited, priority 2014, dated 2018).
# Read-outs that look alike come from different tables or passages of the source.
# Assays:
# [1] = low solubility/low permeability
compound,measurement,setting,value
"Cc1cn(-c2cc(NC(=O)c3ccc(C)c(Nc4nccc(-c5cccnc5)n4)c3)cc(C(F)(F)F)c2)cn1 [Nilotinib, 4-methyl-N-[3-(4-methyl-1H-imidazol-1-yl)-5-(trifluoromethyl)phenyl]-3-[[4-(3-pyridinyl)-2-pyrimidinyl]amino]-benzamide]",Biopharmaceutics Classification System (BCS) class (solubility/permeability),[1],class IV
same,solubility,acidic media,soluble
same,solubility,buffer solutions of pH 4.5 and higher,practically insoluble
